Experimental data: patent US20060069132A1, “Azolecarboxamide herbicides” (priority 2004, published 2006)

Tests used:
Experiment in all cases: Test C postemergence herbicide test
[1] = tested on: wild oat; format: in vivo, Avenafatua
In short: (§1)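 Postemergence sprays were applied to plants 2 to 18 cm tall (1- to 4-leaf stage); in the flooded paddy test, barnyardgrass was grown to the 2-leaf stage. After 12 to 14 days in a greenhouse, injury was visually rated against untreated controls on a 0–100 scale (100 = complete control).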

[2] = tested on: green foxtail; format: in vivo, Setaria viridis
In short: as §1

[3] = tested on: windgrass; format: in vivo, Apera spica-venti
In short: as §1

[4] = tested on: blackgrass; format: in vivo, Alopecurus myosuroides; conditions: for Blackgrass plant response rating: 500 g ai/ha
In short: as §1

[5] = tested on: winter barley; format: in vivo, Hordeum vulgare; conditions: for Barley, Winter plant response rating: 500 g ai/ha
In short: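 Greenhouse test with a 12–14 day hold after application and visual comparison with controls. Emerged plants were 1- to 4-leaf stage (2–18 cm) when sprayed postemergence, and the paddy barnyardgrass was at 2 leaves under flooded conditions. 100 = complete control.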

[6] = tested on: wheat; format: in vivo, Triticum aestivum
In short: as §1

[7] = tested on: downy bromegrass; format: in vivo, Bromus tectorum
In short: as §1

[8] = tested on: canarygrass; format: in vivo, Phalaris minor
In short: as §1

[9] = tested on: Italian ryegrass; format: in vivo, Lolium multiflorum
In short: as §1

[10] = Postemergence, 250 g ai/ha, scale 0 to 100, 0 no effect, 100 complete control
[11] = postemergence, 125 g ai/ha, scale 0 to 100
[12] = postemergence, 62 g ai/ha, scale 0 to 100
[13] = postemergence, 31 g ai/ha, scale 0 to 100
[14] = postemergence, 125 g ai/ha, scale 0 to 100 (0 no effect, 100 complete control)
[15] = postemergence, 62 g ai/ha, scale 0 to 100 (0 no effect, 100 complete control)
[16] = Postemergence, 500 g ai/ha, scale 0 to 100, 0 no effect, 100 complete control
[17] = Postemergence, 500 g ai/ha, scale 0 to 100

Row | SMILES | Plant response rating, Oat, Wild [1, 11] | Plant response rating, Oat, Wild [1, 12] | Plant response rating, Foxtail, Green [2, 10] | Plant response rating, Foxtail, Green [2, 11] | Plant response rating, Foxtail, Green [2, 12] | Plant response rating, Windgrass [3, 11] | Plant response rating, Windgrass [3, 12] | Plant response rating, Blackgrass [4, 10] | Plant response rating, Blackgrass [4, 11] | Plant response rating, Blackgrass [4, 12] | Plant response rating, Barley, Winter [5, 10] | Plant response rating, Barley, Winter [5, 14] | Plant response rating, Barley, Winter [5, 15] | Plant response rating, Wheat [6, 11] | Plant response rating, Wheat [6, 12] | Plant response rating, Bromegrass, Downy [7, 10] | Plant response rating, Bromegrass, Downy [7, 12] | Plant response rating, Canarygrass [8, 10] | Plant response rating, Canarygrass [8, 11] | Plant response rating, Canarygrass [8, 12] | also measured
1 | CCOC(=O)c1ccc(F)c(NC(=O)c2cc(C3(C)CC3)nn2CC)c1 [Compound 296] | 60 | 35 | 60 | 50 | 40 | 50 | 45 | 75 | 65 | 60 | 45 | 40 | 35 | 35 | 35 | 45 | 35 | 55 | 40 | 30 | Plant response rating, Oat, Wild [1, 10]: 60; Plant response rating, Windgrass [3, 10]: 65; Plant response rating, Blackgrass [4, 13]: 45; Plant response rating, Barley, Winter [5, 13]: 30; Plant response rating, Wheat [6, 10]: 40; Plant response rating, Bromegrass, Downy [7, 11]: 35; Plant response rating, Bromegrass, Downy [7, 13]: 25; Plant response rating, Canarygrass [8, 13]: 30; Plant response rating, Ryegrass, Italian [9, 10]: 65; Plant response rating, Ryegrass, Italian [9, 11]: 45; Plant response rating, Ryegrass, Italian [9, 12]: 35
2 | CCc1nn(C(C)(C)C)nc1C(=O)Nc1cccc(C(=O)NC2CC2)c1 [Compound 417] | 40 | 35 | 60 | 55 | 50 | 40 | 40 | 60 | 50 | 35 | 30 | 20 | 20 | 20 | 20 | 50 | 35 | 45 | 40 | 30 | Plant response rating, Oat, Wild [1, 16]: 60; Plant response rating, Foxtail, Green [2, 16]: 65; Plant response rating, Windgrass [3, 16]: 55; Blackgrass plant response rating ([4]; Postemergence, scale 0 to 100): 60; Barley, Winter plant response rating ([5]; Postemergence, scale 0 to 100): 35; Plant response rating, Wheat [6, 16]: 35; Plant response rating, Bromegrass, Downy [7, 16]: 65; Plant response rating, Bromegrass, Downy [7, 11]: 40; Plant response rating, Canarygrass [8, 16]: 55; Plant response rating, Ryegrass, Italian [9, 16]: 60; Plant response rating, Ryegrass, Italian [9, 11]: 40; Plant response rating, Ryegrass, Italian [9, 12]: 35
3 | CCn1nc(C2(C)CC2)cc1C(=O)Nc1cccc(C(=O)N2CC=CC2)c1 [Compound 304] | 60 | 60 | 50 | 45 | 40 | 35 | 35 | 70 | 50 | 60 | 35 | 35 | 35 | 40 | 35 | 40 | 40 | 45 | 40 | 40 | Oat, Wild plant response rating [1, 17]: 70; Plant response rating, Oat, Wild [1, 10]: 60; Foxtail, Green plant response rating [2, 17]: 60; Windgrass plant response rating [3, 17]: 45; Plant response rating, Windgrass [3, 10]: 40; Blackgrass plant response rating ([4]; Postemergence, scale 0 to 100): 95; Barley, Winter plant response rating ([5]; Postemergence, scale 0 to 100): 45; Wheat plant response rating [6, 17]: 40; Plant response rating, Wheat [6, 10]: 40; Bromegrass, Downy plant response rating [7, 17]: 50; Plant response rating, Bromegrass, Downy [7, 11]: 40; Canarygrass plant response rating [8, 17]: 45; Ryegrass, Italian plant response rating [9, 17]: 50; Plant response rating, Ryegrass, Italian [9, 10]: 50; Plant response rating, Ryegrass, Italian [9, 11]: 50; Plant response rating, Ryegrass, Italian [9, 12]: 50
4 | CCNC(=O)c1cccc(NC(=O)c2nn(C(C)(C)CC)nc2CC)c1 [Compound 376] | 45 | 40 | 60 | 60 | 40 | 40 | 40 | 50 | 40 | 40 | 30 | 20 | 20 | 20 | 20 | 40 | 35 | 55 | 50 | 45 | Plant response rating, Oat, Wild [1, 16]: 60; Plant response rating, Foxtail, Green [2, 16]: 65; Plant response rating, Windgrass [3, 16]: 65; Blackgrass plant response rating ([4]; Postemergence, scale 0 to 100): 65; Barley, Winter plant response rating ([5]; Postemergence, scale 0 to 100): 40; Plant response rating, Wheat [6, 16]: 25; Plant response rating, Bromegrass, Downy [7, 16]: 50; Plant response rating, Bromegrass, Downy [7, 11]: 35; Plant response rating, Canarygrass [8, 16]: 65; Plant response rating, Ryegrass, Italian [9, 16]: 65; Plant response rating, Ryegrass, Italian [9, 11]: 55; Plant response rating, Ryegrass, Italian [9, 12]: 45
5 | C=CCOc1cccc(NC(=O)c2cc(C(C)(C)C)nn2CC)c1 [Compound 412] | 65 | 60 | 65 | 60 | 45 | 45 | 40 | 65 | 45 | 45 | 40 | 35 | 30 | 35 | 35 | 55 | 40 | 60 | 45 | 45 | Plant response rating, Oat, Wild [1, 16]: 70; Plant response rating, Foxtail, Green [2, 16]: 65; Plant response rating, Windgrass [3, 16]: 65; Blackgrass plant response rating ([4]; Postemergence, scale 0 to 100): 65; Barley, Winter plant response rating ([5]; Postemergence, scale 0 to 100): 50; Plant response rating, Wheat [6, 16]: 50; Plant response rating, Bromegrass, Downy [7, 16]: 60; Plant response rating, Bromegrass, Downy [7, 11]: 45; Plant response rating, Canarygrass [8, 16]: 60; Plant response rating, Ryegrass, Italian [9, 16]: 60; Plant response rating, Ryegrass, Italian [9, 11]: 45; Plant response rating, Ryegrass, Italian [9, 12]: 40
6 | CCn1nc(C(C)(C)C)cc1C(=O)Nc1cccc(OC(F)(F)C(F)F)c1 [Compound 333] | 60 | 50 | 50 | 40 | 30 | 25 | 20 | 50 | 40 | 30 | 55 | 45 | 40 | 50 | 40 | 45 | 40 | 40 | 35 | 35 | Oat, Wild plant response rating [1, 17]: 55; Plant response rating, Oat, Wild [1, 10]: 60; Foxtail, Green plant response rating [2, 17]: 65; Windgrass plant response rating [3, 17]: 80; Plant response rating, Windgrass [3, 10]: 50; Blackgrass plant response rating ([4]; Postemergence, scale 0 to 100): 55; Wheat plant response rating [6, 17]: 55; Plant response rating, Wheat [6, 10]: 50; Bromegrass, Downy plant response rating [7, 17]: 45; Canarygrass plant response rating [8, 17]: 45; Ryegrass, Italian plant response rating [9, 17]: 55; Plant response rating, Ryegrass, Italian [9, 10]: 50; Plant response rating, Ryegrass, Italian [9, 11]: 35; Plant response rating, Ryegrass, Italian [9, 12]: 35
